# According to paper PMC2837410, “Structural Basis of Cell Wall Cleavage by a Staphylococcal Autolysin” (PLoS Pathogens, 2010):
# Changes are numbered by the printed parent chain.
# What was measured:
# [1] = target: T1, AmiE wt (Staphylococcus epidermidis, UniProt O33635); experiment: MTP digestion assay (cleavage of PGN-derived ligands), wt enzyme; type: biochemical; details: 10 µg protein + 0.1 mg ligand in 10 µl 50 mM Tris/HCl pH 8.0, 150 mM NaCl; 72 h at 37°C; products analysed by HPLC and ESI-MS
# T1 construct: A DNA fragment coding for amino acids 303 to 516 of the atlE gene product; GST (N, cleaved yes); made in house; host or cells: Escherichia coli BL21 (DE3)
# T1 sequence (O33635 303-516): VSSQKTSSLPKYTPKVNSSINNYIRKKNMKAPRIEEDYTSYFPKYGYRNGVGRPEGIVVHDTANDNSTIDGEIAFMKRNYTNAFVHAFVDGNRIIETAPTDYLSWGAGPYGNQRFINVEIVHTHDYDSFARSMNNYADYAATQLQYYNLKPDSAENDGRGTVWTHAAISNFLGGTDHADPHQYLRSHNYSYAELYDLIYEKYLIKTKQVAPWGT
# Procedure: (§1) To determine the minimal PGN sequence that can still be cleaved by AmiE, we performed cleavage assays with three PGN-derived compounds: MTP, N-acetylmuramyl-L-alanyl-D-iso-glutamine (MDP), and N-acetyl-D-glucosaminyl-(1,4)-N-acetylmuramyl-L-alanyl-D-iso-glutamine (GMDP). MDP and GDMP were purchased from Sigma and Calbiochem, respectively, whereas MTP was synthesized as described. All ligands were incubated with the wt protein for 72 h at 37°C, followed by analysis of products with HPLC and ESI mass spectrometry. […] The m/z profile of the H177A mutant is dominated by peaks at m/z 621 and 649 (Figure 5, right). The latter peak represents the MTP educt plus an unknown additional mass, which probably originates from the synthesis. Both peaks are replaced by peaks at m/z 346 and 374 in the profile for the wt protein (Figure 5, left). The first peak corresponds to the expected mass of the cleaved peptide stem while the second one is the digestion product of the compound with the higher mass. We conclude that cleavage by AmiE requires the presence of a third amino acid in the peptide stem. As the lysine is quite distant from the active site, it is most likely not required for the catalytic reaction itself but likely serves to anchor the ligand in the binding site. Similar cleavage results have previously been obtained for the catalytically active PGRP-L protein, which also requires MTP for cleavage.
# For each assay, 10 µg of wt or mutant protein and 0.1 mg of the appropriate ligand were incubated in 10 µl gel filtration buffer (50 mM Tris/HCl pH 8.0, 150 mM NaCl). The reaction was stopped after 72 h by adding 100 µl acetonitrile with 0,05% (v/v) formic acid. The sample was then frozen at -20°C until used for ESI-MS.
# [2] = system: wt amidase; details: chelating agents likely remove the zinc ion; cited from earlier work
# Text: In order to determine whether amino acids in the vicinity of the zinc ion are required for enzymatic activity, residues H60, H177 and D179 were separately mutated to alanine. All three mutant proteins were expressed and purified to homogeneity. None of them has lytic activity in zymogram gels with heat-inactivated S. aureus cells, whereas the wild type (wt) protein is able to lyse cell walls efficiently (Figure 4A). Similar results were obtained with lysis assays using purified S. aureus PGN (Figure 4B). Our results therefore provide evidence for a critical role of the zinc ion and its surroun ...
# [3] = target: T2, AmiE H177A (Staphylococcus epidermidis, UniProt O33635, H479A); experiment: MTP digestion assay, inactive mutant (negative control); type: biochemical; details: 10 µg protein + 0.1 mg ligand in 10 µl 50 mM Tris/HCl pH 8.0, 150 mM NaCl; 72 h; ESI-MS
# T2 construct: A DNA fragment coding for amino acids 303 to 516 of the atlE gene product; GST (N, cleaved yes); made in house; host or cells: Escherichia coli
# T2 sequence (O33635 303-516 H479A): T1 sequence (O33635 303-516) with H177A
# Procedure: as §1, with “Similar cleavage results have previously been obtained for the catalytically active PGRP-L protein, which also requires MTP for cleavage.” left out
# [4] = target: T3, AmiE (Staphylococcus epidermidis, UniProt O33635); experiment: Digestion assay with modified AmiE substrates (Mca substrate derivatives); type: biochemical; details: 70 µM substrate, 7.2 µM AmiE, 37°C, 50 mM sodium phosphate buffer pH 7.2, 6 h; stopped with 1% TFA; RP-HPLC C-18, UV 214 nm
# T3 construct: A DNA fragment coding for amino acids 303 to 516 of the atlE gene product; GST (N, cleaved yes); made in house; host or cells: Escherichia coli BL21 (DE3)
# T3 sequence (O33635 303-516): T1 sequence (O33635 303-516)
# Procedure: The five substrates, each at a concentration of 70 µM, were processed by 7.2 µM AmiE at 37°C in digestion buffer (50 mM sodium phosphate buffer, pH 7.2). After 1, 3 and 6 h, the reaction was stopped by adding trifluoroacetic acid to a final concentration of 1%. Decrease of the initial substrate and formation of the Mca product were analyzed by analytical RP-HPLC using a binary HPLC system (Shimadzu, Tokyo, Japan) with a UV detector, a Nucleosil C-18 column (5 µm particle size, 150×2 mm) from Dr Maisch GmbH (Tuebingen, Germany) and a two solvent system: (A) 0.055% (v/v) TFA in water and (B) 0.05% TFA in 80% acetonitrile in water. The substrate was well separated from the generated cleavage product Mca, and was quantified at 214 nm.
compound,measurement,setting,value
"N-acetyl-D-glucosaminyl-(1,4)-N-acetylmuramyl-L-alanyl-D-iso-glutamine [GMDP]",cleavage of ligand by the wt enzyme,[1],neither MDP nor GMDP are cleaved
N-acetylmuramyl-L-alanyl-D-iso-glutamine [MDP],cleavage of ligand by the wt enzyme,[1],neither MDP nor GMDP are cleaved
c1cnc2c(c1)ccc1cccnc12 [phenanthroline],effect of chelating agent on activity of the wt amidase,[2],loss of activity
N-acetylmuramyl-L-alanyl-D-iso-glutamyl-L-lysine [MTP],cleavage of ligand by the H177A mutant,[3],does not cleave
same,cleavage of ligand by the wt enzyme,[1],cleaved into two fragments
O=C(O)CN(CCN(CC(=O)O)CC(=O)O)CC(=O)O [EDTA],effect of chelating agent on activity of the wt amidase,[2],loss of activity
Mca-Ala-D-iGln-Lys-D-Ala-Arg-OH [Lys-substrate],amount of substrate cleaved after 6 h,[4],almost half
Mca-Ala-D-iGln-Ala-D-Ala-Arg-OH [Ala-substrate],amount of substrate cleaved after 6 h,[4],Approximately 10%
